In patent US20010046987A1, “Oxazolidinones having a sulfoximine functionality” (priority 1999, published 2001):

Legend:
Assay type in all cases: cell-based
Staphylococcus aureus = test: MIC by agar dilution, SAUR 9213; details: strain SAUR 9213
Description: (§1) The in vitro activity of compounds of this invention can be assessed by standard testing procedures such as the determination of minimum inhibitory concentration (MIC) by agar dilution as described in “Approved Standard.

[1] = test system: Staphylococcus epidermidis; test: MIC by agar dilution, SEPI 30593; details: strain SEPI 30593
Description: as §1

Enterococcus faecium = test: MIC by agar dilution, EFAE 12712; details: strain EFAE 12712
Description: as §1

Streptococcus pneumoniae = test: MIC by agar dilution, SPNE 9912; details: strain SPNE 9912
Description: as §1

Streptococcus pyogenes = test: MIC by agar dilution, SPYO 152; details: strain SPYO 152
Description: as §1

H. influenzae = test: MIC by agar dilution, HINF 30063; details: strain HINF 30063
Description: as §1

Enterococcus faecalis = test: MIC by agar dilution, EFAE 9217; details: strain EFAE 9217
Description: as §1

Moraxella catarrhalis = test: MIC by agar dilution, MCAT 30607; details: strain MCAT 30607
Description: as §1

Row | SMILES | Antibacterial Activity Minimum Inhibitory Concentration SAUR 9213 (Staphylococcus aureus) | Antibacterial Activity Minimum Inhibitory Concentration SEPI 30593 [1] | Antibacterial Activity Minimum Inhibitory Concentration EFAE 12712 (Enterococcus faecium) | Antibacterial Activity Minimum Inhibitory Concentration SPNE 9912 (Streptococcus pneumoniae) | Antibacterial Activity Minimum Inhibitory Concentration SPYO 152 (Streptococcus pyogenes) | Antibacterial Activity Minimum Inhibitory Concentration HINF 30063 (H. influenzae) | Antibacterial Activity Minimum Inhibitory Concentration EFAE 9217 (Enterococcus faecalis) | Antibacterial Activity Minimum Inhibitory Concentration MCAT 30607 (Moraxella catarrhalis)
1 | CC(=O)NC[C@H]1CN(c2ccc(C3CCS(=N)(=O)CC3)c(F)c2)C(=O)O1 (single isomer, unassigned) [Example 4] | 16 µg/mL | 2 µg/mL | 4 µg/mL | 1 µg/mL | 1 µg/mL | 8 µg/mL | 2 µg/mL | 4 µg/mL
2 | CC(=O)NC[C@H]1CN(c2ccc(C3CCS(=N)(=O)CC3)c(F)c2)C(=O)O1 (single isomer, unassigned) [Example 8] | 8 µg/mL | 1 µg/mL | 2 µg/mL | 0.5 µg/mL | 1 µg/mL | 8 µg/mL | 2 µg/mL | 2 µg/mL
3 | CC(=S)NC[C@H]1CN(c2ccc(C3CCS(=N)(=O)CC3)c(F)c2)C(=O)O1 (single isomer, unassigned) [Example 9] | 0.5 µg/mL | 0.125 µg/mL | 0.5 µg/mL | 0.25 µg/mL | 0.25 µg/mL | 2 µg/mL | 0.5 µg/mL | 2 µg/mL
4 | CCC(=S)NC[C@H]1CN(c2ccc(C3CCS(=N)(=O)CC3)c(F)c2)C(=O)O1 (single isomer, unassigned) [Example 10] | 1 µg/mL | 0.25 µg/mL | 0.5 µg/mL | 0.25 µg/mL | 0.25 µg/mL | 2 µg/mL | 0.5 µg/mL | 2 µg/mL
5 | N=S1(=O)CCC(c2ccc(N3C[C@H](CNC(=S)C4CC4)OC3=O)cc2F)CC1 (single isomer, unassigned) [Example 11] | 1 µg/mL | 0.5 µg/mL | 0.5 µg/mL | 0.25 µg/mL | 0.25 µg/mL | 4 µg/mL | 0.5 µg/mL | 1 µg/mL
6 | CC(=O)N=S1(=O)CCC(c2ccc(N3C[C@H](CNC(C)=O)OC3=O)cc2F)CC1 (single isomer, unassigned) [Example 12] | 8 µg/mL | 1 µg/mL | – | 0.5 µg/mL | 1 µg/mL | 16 µg/mL | 2 µg/mL | 8 µg/mL
7 | CCC(=S)NC[C@H]1CN(c2ccc(C3CCS(=O)(=NC(C)=O)CC3)c(F)c2)C(=O)O1 (single isomer, unassigned) [Example 14] | 1 µg/mL | 0.5 µg/mL | 1 µg/mL | 0.25 µg/mL | 0.25 µg/mL | 4 µg/mL | 0.5 µg/mL | 2 µg/mL
8 | CCOC(=O)CN=S1(=O)CCC(c2ccc(N3C[C@H](CNC(=S)CC)OC3=O)cc2F)CC1 (single isomer, unassigned) [Example 20] | 2 µg/mL | 1 µg/mL | 1 µg/mL | 4 µg/mL | 16 µg/mL | 8 µg/mL | 1 µg/mL | 4 µg/mL
9 | CCC(=S)NC[C@H]1CN(c2ccc(C3CCS(=O)(=NCCO)CC3)c(F)c2)C(=O)O1 (single isomer, unassigned) [Example 24] | 2 µg/mL | 0.5 µg/mL | 1 µg/mL | 0.25 µg/mL | 0.5 µg/mL | 4 µg/mL | 1 µg/mL | 4 µg/mL
10 | COC(=O)N=S1(=O)CCC(c2ccc(N3C[C@H](CNC(=S)C4CC4)OC3=O)cc2F)CC1 (single isomer, unassigned) [Example 30] | 1 µg/mL | 0.5 µg/mL | 0.5 µg/mL | 0.125 µg/mL | 0.5 µg/mL | 4 µg/mL | 0.5 µg/mL | 0.5 µg/mL
11 | CC(=O)NC[C@H]1CN(c2ccc(C3CCS(=O)(=NC(=O)OCc4ccccc4)CC3)c(F)c2)C(=O)O1 (single isomer, unassigned) [Example 33] | 8 µg/mL | 2 µg/mL | 4 µg/mL | 1 µg/mL | 1 µg/mL | 64 µg/mL | 4 µg/mL | 16 µg/mL
12 | CC(=O)NC[C@H]1CN(c2ccc(C3CCS(=O)(=NC(=O)NCc4ccccc4)CC3)c(F)c2)C(=O)O1 (single isomer, unassigned) [Example 34] | 16 µg/mL | 2 µg/mL | 4 µg/mL | 1 µg/mL | 2 µg/mL | 32 µg/mL | 4 µg/mL | 16 µg/mL
13 | CC(=S)NC[C@H]1CN(c2ccc(N3CCS(=N)(=O)CC3)c(F)c2)C(=O)O1 [Example 1, N-({(5S)-3-[3-Fluoro-4-(1-imino-1-oxido-1λ^4,4-thiazinan-4-yl)phenyl]-2-oxo-1,3-oxazolidin-5-yl}methyl)ethanethioamide] | 1 µg/mL | 0.5 µg/mL | 1 µg/mL | 0.25 µg/mL | 0.25 µg/mL | 4 µg/mL | 1 µg/mL | 2 µg/mL
